Tested on: rat testicular cell homogenate
Experiment: Incubation of rat testicular homogenate with pregnenolone and extract, capillary gas chromatography of steroids
Type: biochemical
Conditions: gas capillary analysis
Description: To preliminary assess the activity of Eurycoma longifolia, an extract of it was prepared and incubated with rat testicular cell homogenate. After the incubation was completed, the samples were measured using capillary gas chromatography to measure the presence of various hormones. 500 g of the dried pulverized root was boiled exhaustively with 5 L of distilled water for 24 hours. The extract was concentrated to a 40% mass, allowed to cool to room temperature, filtered using a 4 micron filter, then centrifuged at 10,000 rpm for five minutes. Supernatant was collected and freeze-dried yielding yellow brown colored fine powder. Tris/sucrose buffer, PH 7.4 was used as homogenizing buffer and medium for suspending the testicular homogenate. This buffer, consisting of 0.25M sucrose, 0.05M Tris-HCL, 0.025M KCl and 0.005M MgCl2H2O was prepared fresh and kept cool at 4° C. Sprague Dawley albino male rats were sacrificed by stunning followed by cervical dislocation. Testes were removed quickly, pooled and homogenized in Tris/sucrose buffer (10% w/v) using homogenizer. Homogenate was then centrifuged at 1000×g (3000 rpm) for 20 minutes to remove the nuclei and cell debris. Post-nuclei suspension was used for incubation studies; a portion of the suspension was reserved for protein determination. 10 ml of the testes homogenate was first treated with 5 ml ethyl acetate before incubation process. […]

SMILES: CC(=O)[C@H]1CC[C@H]2[C@@H]3CC=C4C[C@@H](O)CC[C@]4(C)[C@H]3CC[C@]12C [Prenenolone, Pregnenolone]
- An α (16-androstene steroid metabolite (pheromone)): 1.62
- An β Andien β (16-androstene steroid metabolites (pheromones)): 1.99

From patent US20070009621A1, “Correcting systemic androgen levels using Eurycoma longifolia” (priority 2005, published 2007)
